Laboratory results: ChEMBL document CHEMBL5247584, “Design, synthesis and evaluation of fused hybrids with acetylcholinesterase inhibiting and Nrf2 activating functions for Alzheimer's disease” (Eur J Med Chem, 2022)
Calls of active or inactive are those of the source. The calls are words filed in the database; no cut-off is given here.

What was measured:
Mus musculus [1] = assay: Cognitive enhancing effect in amyloid beta (1 to 42)-induced ICR mouse model assessed as increase in ACh level at 20 mg/kg […] by ELISA; assay type: functional, organism-based
SH-SY5Y [2] = assay: Antiproliferative activity against human SH-SY5Y cells assessed as reduction in cell viability measured for 24 hrs by MTT assay; assay type: functional, cell-based
[3] = target: T1, Nuclear factor erythroid 2-related factor 2 (Rattus norvegicus) (UniProt O54968); assay: Activation of Nrf2 pathway in rat PC-12 cells assessed as fold increase in Nrf2 level at 20 uM measured at 2 hrs by qRT-PCR analysis; assay type: cell-based; settings: PC12, filed as activator
T1 sequence (whole entry): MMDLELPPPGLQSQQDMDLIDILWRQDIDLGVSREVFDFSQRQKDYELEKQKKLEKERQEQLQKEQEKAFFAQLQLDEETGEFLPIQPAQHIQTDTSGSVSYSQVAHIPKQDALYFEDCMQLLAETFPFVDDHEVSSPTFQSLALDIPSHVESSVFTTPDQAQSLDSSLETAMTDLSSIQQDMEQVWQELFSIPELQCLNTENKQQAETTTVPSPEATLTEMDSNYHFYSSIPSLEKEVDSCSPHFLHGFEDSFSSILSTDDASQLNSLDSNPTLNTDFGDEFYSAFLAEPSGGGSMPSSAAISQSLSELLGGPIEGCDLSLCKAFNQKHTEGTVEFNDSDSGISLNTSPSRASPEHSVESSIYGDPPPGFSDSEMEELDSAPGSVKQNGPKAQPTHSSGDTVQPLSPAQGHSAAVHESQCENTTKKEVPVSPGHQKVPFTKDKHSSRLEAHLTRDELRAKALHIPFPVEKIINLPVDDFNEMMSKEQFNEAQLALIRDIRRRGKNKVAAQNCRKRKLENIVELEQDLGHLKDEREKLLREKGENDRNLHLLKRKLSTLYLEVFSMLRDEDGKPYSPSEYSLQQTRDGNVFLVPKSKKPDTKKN

[4] = target: T1, Nuclear factor erythroid 2-related factor 2 (Rattus norvegicus); assay: Activation of Nrf2 pathway in rat PC-12 cells assessed as increase in HO-1 level at 20 uM measured after 6 hrs by Western blot analysis; assay type: cell-based; settings: PC12, filed as activator
SH-SY5Y [5] = assay: Neuroprotective activity against Abeta1-42-induced human SH-SY5Y cells assessed as reduction in cell damage preinubated for 2 hrs followed by Abeta1-42 induction and measured after 24 hrs by MTT assay; assay type: functional, cell-based; settings: time 26.0 hrs
[6] = Hepatotoxicity in […] assessed as effect on AST level; assay type: toxicity, cell-based
Acetylcholinesterase = Acetylcholinesterase (Electrophorus electricus, UniProt O42275); assay: Inhibition of electric eel AChE using ATC and BTC iodide as substrate preincubated for 5 mins followed by substrate addition and measured after 2 mins by DTNB reagent based assay
Sequence of Acetylcholinesterase (O42275 whole entry): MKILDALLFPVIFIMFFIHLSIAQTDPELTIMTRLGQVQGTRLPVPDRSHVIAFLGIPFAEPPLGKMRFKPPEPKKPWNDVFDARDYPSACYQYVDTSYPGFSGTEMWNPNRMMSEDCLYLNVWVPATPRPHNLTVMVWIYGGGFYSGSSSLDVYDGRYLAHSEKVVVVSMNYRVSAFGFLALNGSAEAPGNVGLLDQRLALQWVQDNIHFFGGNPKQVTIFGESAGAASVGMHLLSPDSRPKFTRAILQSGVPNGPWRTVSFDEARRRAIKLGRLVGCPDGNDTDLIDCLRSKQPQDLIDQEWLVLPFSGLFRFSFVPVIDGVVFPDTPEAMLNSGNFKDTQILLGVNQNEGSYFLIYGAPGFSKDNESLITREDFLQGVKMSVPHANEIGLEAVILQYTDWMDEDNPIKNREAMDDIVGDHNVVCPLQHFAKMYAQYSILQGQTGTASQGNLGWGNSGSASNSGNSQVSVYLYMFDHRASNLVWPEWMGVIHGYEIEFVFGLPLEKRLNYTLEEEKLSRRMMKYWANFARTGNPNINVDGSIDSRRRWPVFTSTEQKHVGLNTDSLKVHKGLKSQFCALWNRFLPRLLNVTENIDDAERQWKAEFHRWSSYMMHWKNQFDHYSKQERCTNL

[7] = target: T1, Nuclear factor erythroid 2-related factor 2 (Rattus norvegicus); assay: Activation of Nrf2 pathway in rat PC-12 cells assessed as decrease in Nrf2 accumulation in cytoplasm at 20 uM measured after 1 to 5 hrs by Western blot analysis; assay type: cell-based; settings: PC12, time 1-5 hrs
HepG2-ARE-C8 = assay: Cytotoxicity against human HepG2-ARE-C8 cells assessed as reduction in cell viability at 5 and 20 uM measured for 24 hrs by MTT assay; assay type: functional, cell-based
[8] = Hepatotoxicity in […] assessed as effect on ALT level; assay type: toxicity, cell-based
Mus musculus [9] = assay: Antiinflammatory activity Abeta1-42-induced against ICR mouse assessed as increase in TGF-beta1 level at 10 mg/kg, po by ELISA analysis; assay type: functional, organism-based
PC-12 = assay: Cytotoxicity against rat PC12 cells assessed as growth inhibition at 5 uM after 24 hrs by MTT assay; assay type: toxicity, cell-based; settings: pc-12, 24 h
Mus musculus [10] = assay: Neuroprotective activity against Abeta1-42-induced ICR mouse at 20 mg/kg, po by ELISA analysis; assay type: functional, organism-based
[11] = target: T1, Nuclear factor erythroid 2-related factor 2 (Rattus norvegicus); assay: Activation of Nrf2 pathway in rat PC-12 cells assessed as fold increase in GCLM level at 20 uM measured at 2 hrs by qRT-PCR analysis; assay type: cell-based; settings: PC12, filed as activator

Cc1ccc(-c2noc(-c3cccc(OCC4CCN(Cc5cccc(F)c5)CC4)c3)n2)cn1
Activity (Mus musculus [1]): inactive | Activity (SH-SY5Y [2]): inactive | fold change (FC) [3]: 4 | Activity [4]: Active | Activity (SH-SY5Y [5]): Active | Activity [6]: Non-Toxic | IC50 (Acetylcholinesterase): 70 nM | Activity [7]: inactive | Activity (HepG2-ARE-C8): inactive | Activity [8]: Non-Toxic | Activity (Mus musculus [9]): Active | Activity (PC-12): Non-Toxic | Activity (Mus musculus [10]): inactive | fold change (FC) [11]: 8
